Measurements: ChEMBL document CHEMBL3421590, “Pancreatic lipase inhibitory constituents from Morus alba leaves and optimization for extraction conditions” (Bioorg Med Chem Lett, 2015)

Assays:
[1] = target: T1, Pancreatic triacylglycerol lipase (Sus scrofa) (UniProt P00591); test: Inhibition of porcine pancreatic lipase using p-nitrophenylbutyrate as substrate assessed as formation of p-nitrophenol at 100 uM preincubated for 15 mins followed by substrate addition measured after 15 mins relative to control
T1 sequence (whole entry): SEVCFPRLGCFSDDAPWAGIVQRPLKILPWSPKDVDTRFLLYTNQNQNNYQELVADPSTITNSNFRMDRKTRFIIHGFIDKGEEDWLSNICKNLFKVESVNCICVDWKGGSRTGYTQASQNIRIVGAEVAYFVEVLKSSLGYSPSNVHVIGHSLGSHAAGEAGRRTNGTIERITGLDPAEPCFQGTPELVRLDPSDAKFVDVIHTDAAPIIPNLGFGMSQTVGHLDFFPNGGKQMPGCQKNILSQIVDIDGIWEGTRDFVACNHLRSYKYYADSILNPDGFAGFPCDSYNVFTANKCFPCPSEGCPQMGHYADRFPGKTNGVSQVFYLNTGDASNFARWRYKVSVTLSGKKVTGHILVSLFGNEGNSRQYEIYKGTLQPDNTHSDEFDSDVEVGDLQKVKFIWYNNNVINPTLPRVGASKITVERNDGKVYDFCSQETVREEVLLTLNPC

[2] = target: T2, Pancreatic triacylglycerol lipase (Sus scrofa, UniProt P00591); test: Inhibition of porcine pancreatic lipase using p-nitrophenylbutyrate as substrate assessed as formation of p-nitrophenol preincubated for 15 mins followed by substrate addition measured after 15 mins
T2 sequence (P00591 whole entry): T1 sequence (whole entry)

Structure (SMILES) | inhibition [1] | IC50 [2]
O=c1cc(-c2ccc(O)cc2O)oc2cc(O)cc(O)c12 [NORARTOCARPETIN] | 45.3% | > 70 µM
CC(C)=CCc1cc2cc(-c3cc(O)cc(O)c3)oc2cc1O [MORACIN N] | 61.7% | 29.7 µM
Oc1cc(O)cc(-c2cc3cc(O)c(O)cc3o2)c1 | 59.1% | 64.8 µM
O=c1c(O[C@@H]2O[C@H](CO)[C@@H](O)[C@H](O)[C@H]2O)c(-c2ccc(O)c(O)c2)oc2cc(O)cc(O)c12 [ISOQUERCETIN] | 12.6% | > 70 µM
CC(C)=CCC/C(C)=C/Cc1c(O)cc(O)cc1-c1cc2ccc(O)cc2o1 [ALBAFURAN A] | 45.4% | > 70 µM
COc1cc(-c2oc3cc(O)cc(O)c3c(=O)c2O)ccc1O [ISORHAMNETIN] | 32.4% | > 70 µM
O=C1CC(c2ccc(O)cc2O)Oc2cc(O)cc(O)c21 (centres undefined) [STEPPOGENIN] | 4.4% | > 70 µM
CC(C)=CCc1c(O)ccc(C(=O)/C=C/c2ccc(O)cc2O)c1O [MORACHALCONE A] | 73% | 6.2 µM
Oc1cc(O)cc(/C=C/c2ccc(O)cc2O)c1 [OXYRESVERATROL] | 28.8% | > 70 µM
O=C1CC(c2ccc(O)cc2O)Oc2cc(O)ccc21 (centres undefined) | 69.6% | 56.4 µM
Oc1cc(O)cc(-c2cc3ccc(O)cc3o2)c1 [MORACIN M] | 21.5% | > 70 µM
O=c1c(O[C@@H]2O[C@H](CO)[C@@H](O)[C@H](O)[C@H]2O)c(-c2ccc(O)cc2)oc2cc(O)cc(O)c12 [ASTRAGALIN] | 10.8% | > 70 µM
Oc1cc(O)cc(-c2cc3cc4ccoc4cc3o2)c1 | 31.7% | > 70 µM
O=c1c(O)c(-c2ccc(O)c(O)c2)oc2cc(O)cc(O)c12 | 36.3% | 
CC(C)=CCc1c(-c2ccc(O)cc2O)oc2c(CC=C(C)C)c(O)cc(O)c2c1=O [KUWANON C] | 72.5% | 18.6 µM
CC1(C)C=Cc2cc3cc(-c4cc(O)cc(O)c4)oc3cc2O1 | 67.9% | 29.2 µM
COc1ccc(-c2oc3cc(O)cc(O)c3c(=O)c2OC2O[C@H](CO)[C@@H](O)[C@H](O)[C@H]2O)cc1 (some centres undefined) | 12.1% | > 70 µM
O=c1c(O)c(-c2ccc(O)cc2)oc2cc(O)cc(O)c12 [KAEMPFEROL] | 50.3% | > 70 µM
Oc1cc(O)cc(-c2cc3ccc(O)c(O)c3o2)c1 | 55.9% | 63 µM
CC(C)=CCc1c(O)cc(-c2cc3ccc(O)cc3o2)cc1O [MORACIN C] | 64.8% | 32 µM
